Assays:
[1] = test system: cell-cycle marker pCDG and auxin-responsive marker DR5::GUS; assay: Arabidopsis thaliana seedling cell-cycle analysis (GUS markers); conditions: Results from Examples 9 and 10
Method: To further study anti-cell-cycle activity of various oligopeptides, a proliferation experiment in Arabidopsis Thaliana seedlings was performed. The aim was to test a group of 140 oligopeptides of varying length for their effect on plant marker gene expression during rapid growth when avid cell division occurs.
The peptides were re-suspended in 1× Phosphate Buffer Saline (PBS) pH 8 to a final concentration of 5 mg/ml. The obtained solutions were then divided through 96-well round bottom plates (Corning Incorporated) at 40 microliters per well. Plates were stored before use at […] for four days. Seeds of Arabidopsis thaliana ecotype Ws-0 were surface sterilized in 2% commercial bleach (Gloria) for ten minutes and washed five times with sterile MQ water. The seeds were then re-suspended with 0.1% agar and plated on MS20 plates supplemented with 80 mg/l Kanamycin.
The plates were placed at […] for two nights and then transferred to a climate room at […] and a 16/8 hours photoperiod. After four days of growth, the seedlings were transferred to 96-well plates containing the peptide solutions (four seedlings per well) and incubated for four and eight hours.
For this experiment, Arabidopsis homozygous seedlings harboring two reporter genes fused to GUS were used. […] After incubation with the compounds, the seedlings were stained for GUS. The staining reaction was performed in 100 mM sodium phosphate buffer (pH 7.0) that contained 10 mM EDTA, 10% DMSO, 0.1% Triton X-100, 2 mM X-Gluc, 0.5 mM K3Fe(CN)6 and 0.5 mM K4Fe(CN)6 at […] for 16 hours. […] Seedlings were fixed and cleared in chloral hydrate solution for detailed microscopic observation and photography under a microscope equipped with DIC optics.
Peptides were tested for an effect on marker gene expression on rapidly growing Arabidopsis young seedlings. This was monitored by changes on GUS distribution in different organs: root, root-hypocotyl transition zone and cotyledons.

[2] = test system: high dose LPS (E. coli 026:B6)-induced septic shock in BALB/c mice; assay: high dose LPS-induced septic shock, peptide administered twice; type: in vivo; conditions: peptide twice (t = 2 and 24 hours) 5 mg/kg
Method: Mice used in sepsis or septic shock experiments: Female BALB/c mice of eight to twelve weeks of age were used for all experiments. The animals were bred in our facility under specific pathogen-free conditions according to the protocols described in the […] of European Laboratory Animal Science Associations (FELASA) Working group on Animal Health (Laboratory Animals 28:1-24, 1994).
Injection protocols: For the endotoxin model, BALB/c mice were injected i.p. with 150-300 μg LPS (E. coli 026:B6; Difco Lab., Detroit, Mich., USA). Control groups were treated with PBS i.p. only. To test the effect of peptides, they were dissolved in PBS and injected i.p. at predetermined points in time after LPS treatment.
Mice were scored for sickness severity using the following measurement scheme: • 0 No abnormalities. • 1 Percolated fur, but no detectable behavior differences compared to normal mice. • 2 Percolated fur, huddle reflex, responds to stimuli (such as tap on cage), just as active during handling as healthy mouse. • 3 Slower response to tap on cage, passive or docile when handled, but still curious when alone in a new setting. • 4 Lack of curiosity, little or no response to stimuli, quite immobile. • 5 Labored breathing, inability or slow to self-right after being rolled onto back (moribund, sacrificed). • D Dead.
A second set of septic shock experiments were set up to determine which of the peptides LQG, LQGV (SEQ ID NO:117), VLPALP (SEQ ID NO:140), VLPALPQ (SEQ ID NO:143), MTR, MTRV (SEQ ID NO:119), VVC or AQG, AQGV (SEQ ID NO:120), LAG and LAGV (SEQ ID NO:121) were capable of inhibiting high dose LPS-induced septic shock in mice by treating mice with a double dose of peptide at two and 24 hours after LPS treatment. At each treatment, peptides were used at 5 mg/kg bodyweight. BALB/c mice were injected i.p. with high doses LPS (E. coli 026:B6; Difco Lab., Detroit, Mich. USA), predetermined to be leading to 80 to 100% mortality in 24 to 72 hours.

[3] = test system: renal ischemia reperfusion in mice; assay: mouse renal ischemia reperfusion test; type: in vivo; set-up: BUN after 25 minutes renal ischemia, mean / Urea levels in dose-response experiment: unit not given here; conditions: for BUN concentration versus the PBS control group (in words) / mortality versus the PBS control group (in words) / BUN after 25 minutes renal ischemia, mean: 5 mg/kg i.v.; for mortality at 72 hours post-reperfusion: 5 mg/kg i.v. before and after 25 minutes clamping, dead/total
Method: Six oligopeptides (i.e., A: LAGV (SEQ ID NO:121); B: AQGV (SEQ ID NO:120); C: LAG; D: AQG; E: MTR; and F: MTRV (SEO ID NO:119)) were tested and compared with PBS (control) in a double blind animal study for each peptide's relative ability to aid recovery in a mouse renal ischemia reperfusion test. In this test, the mice were anesthetized, and one kidney from each mouse was removed. The other kidney was tied off for 25 minutes, and the serum urea levels were allowed to increase. Both before and after tying off, each of the separate peptides was administered to thirty (30) different mice (5 mg oligopeptide / kg body mass intravenously), after which, the mortality of the mice was determined for each oligopeptide as well as was the BUN concentration at two hours, 24 hours and 72 hours. The results are shown in Table 3 below (excluding the results of peptide A (LAGV (SEQ ID NO:121)) obtained in Example 3).
Under inhalation anesthesia, the left kidney with its artery and vein was isolated and occluded for 25 minutes using a microvascular clamp. During surgery, animals were placed on a heating pad to maintain body temperature at 37° C. Five minutes before placing the clamp, and five minutes before releasing the clamp, 5 mg/kg of peptide dissolved in 0.1 mL of sterile saline, was administered intravenously. After reperfusion of the left kidney, the right kidney was removed. Kidney function was assessed by measuring blood urea nitrogen before clamping, and at 2, 24, and 72 hours after reperfusion.
Peptides were tested at 0.3, 1, 3, 10 and 30 mg/kg dosages given as described in Example 3. P values (calculated by Mann Whitney U-test (SPSS for Windows)) of serum urea levels of PBS compared to peptide D groups at 72 hours post-clamping were at 0.3 mg/kg 0.001, at 1 mg/kg 0.009, at 3 mg/kg 0.02, at 10 mg/kg 0.000, and at 30 mg/kg 0.23; for peptide B (SEQ ID NO:120) groups, these P-values were 0.88, 0.054, 0.000, 0.001 and 0.003.

Substance: AQG
- identified as useful peptide for treatment of radiation injury from cell-cycle studies in plants and in vitro proliferation studies [1]: useful
- mice with sickness score 1, effect at t = 24 hours ([2]; LPS dose 10.5): 2
- mice with sickness score 1, effect at t = 48 hours ([2]; LPS dose 10.5): 2
- mice with sickness score 2, effect at t = 24 hours ([2]; LPS dose 10.5): 1
- mice with sickness score 2, effect at t = 48 hours ([2]; LPS dose 10.5): 3
- mice with sickness score 3, effect at t = 24 hours ([2]; LPS dose 10.5): 2
- mice with sickness score 1, effect at t = 24 hours ([2]; LPS dose 11): 4
- mice with sickness score 2, effect at t = 48 hours ([2]; LPS dose 11): 6
- mice with sickness score 3, effect at t = 24 hours ([2]; LPS dose 11): 2
- Mortality in dose-response experiment ([3]; 0.3 mg/kg, 24 hours): 0-10
- Urea levels in dose-response experiment ([3]; 0.3 mg/kg, 24 hours): 38.4
- Mortality in dose-response experiment ([3]; 0.3 mg/kg, 72 hours): 2-8
- Urea levels in dose-response experiment ([3]; 0.3 mg/kg, 72 hours): 30.4
- Mortality in dose-response experiment ([3]; 1.0 mg/kg, 24 hours): 0-10
- Urea levels in dose-response experiment ([3]; 1.0 mg/kg, 24 hours): 48.4
- Mortality in dose-response experiment ([3]; 1.0 mg/kg, 72 hours): 1-8
- Urea levels in dose-response experiment ([3]; 1.0 mg/kg, 72 hours): 38.4
- Mortality in dose-response experiment ([3]; 3.0 mg/kg, 24 hours): 0-10
- Urea levels in dose-response experiment ([3]; 3.0 mg/kg, 24 hours): 39.3
- Mortality in dose-response experiment ([3]; 3.0 mg/kg, 72 hours): 0-10
- Urea levels in dose-response experiment ([3]; 3.0 mg/kg, 72 hours): 40.3
- BUN concentration versus the PBS control group (in words) [3]: no reducing effect on BUN concentration
- mortality versus the PBS control group (in words) [3]: significant reduction of mortality
- mortality at 72 hours post-reperfusion [3]: 4/10
- Mortality in dose-response experiment ([3]; 10.0 mg/kg, 24 hours): 0-8
- Urea levels in dose-response experiment ([3]; 10.0 mg/kg, 24 hours): 46.8
- Mortality in dose-response experiment ([3]; 10.0 mg/kg, 72 hours): 1-10
- Urea levels in dose-response experiment ([3]; 10.0 mg/kg, 72 hours): 25.8
- Mortality in dose-response experiment ([3]; 30.0 mg/kg, 24 hours): 0-8
- Urea levels in dose-response experiment ([3]; 30.0 mg/kg, 24 hours): 52.8
- Mortality in dose-response experiment ([3]; 30.0 mg/kg, 72 hours): 1-8
- Urea levels in dose-response experiment ([3]; 30.0 mg/kg, 72 hours): 58.9
- BUN after 25 minutes renal ischemia, mean ([3]; 2 hours after reperfusion): 17.7
- BUN after 25 minutes renal ischemia, mean ([3]; 24 hours after reperfusion): 66.76
- BUN after 25 minutes renal ischemia, mean ([3]; 72 hours after reperfusion): 91.18
- BUN levels in dose-response experiment (in words) ([3]; lower dosages tested (0.3-30 mg/kg range), compared with peptide B): did reduce BUN levels surprisingly well at the lower dosages tested
- BUN after 25 minutes renal ischemia, mean ([3]; t = 0 hr (before clamping)): 9.304

Substance: LAG
- identified as useful peptide for treatment of radiation injury from cell-cycle studies in plants and in vitro proliferation studies [1]: useful
- mice scored D (dead), effect at t = 48 hours ([2]; LPS dose 10.5): 6
- mice with sickness score 5, effect at t = 24 hours ([2]; LPS dose 10.5): 5
- mice scored D (dead), effect at t = 48 hours ([2]; LPS dose 11): 6
- mice with sickness score 5, effect at t = 24 hours ([2]; LPS dose 11): 6
- BUN concentration versus the PBS control group (in words) [3]: no reducing effect on BUN concentration
- mortality versus the PBS control group (in words) [3]: significant reduction of mortality
- mortality at 72 hours post-reperfusion [3]: 4/10
- BUN after 25 minutes renal ischemia, mean ([3]; 2 hours after reperfusion): 18.13
- BUN after 25 minutes renal ischemia, mean ([3]; 24 hours after reperfusion): 59.24
- BUN after 25 minutes renal ischemia, mean ([3]; 72 hours after reperfusion): 74.4
- BUN after 25 minutes renal ischemia, mean ([3]; t = 0 hr (before clamping)): 10.15
